Measured values from patent US10087169B2, “Bicyclic PKM2 activators” (Agios Pharmaceuticals, Inc., priority 2010, dated 2018).

Biological target: PKM2 (Homo sapiens, UniProt P14618)
Test: PKM2 Assay
Format: biochemical
Conditions: activation of PKM2; Tables 1-4
Procedure: • PKM2 stock enzyme solution was diluted in Reaction Buffer • 2 μL of compound was added into each well first, and then 180 μL of the Reaction Mix was added. • Reaction mixture with compound (without ADP) was incubated for 30 minutes at 4° C. • Plates were re-equilibrated to room temperature prior to adding 20 μL ADP to initiate the reaction. • Reaction progress was measured as changes in absorbance at 340 nm wavelength at room temperature (25° C.) Reaction Mix:
PKM2 (50 ng/well), ADP (0.7 mM), PEP (0.15 mM), NADH (180 μM), LDH (2 units) in Reaction Buffer

PKM2, sequence (P14618 whole entry): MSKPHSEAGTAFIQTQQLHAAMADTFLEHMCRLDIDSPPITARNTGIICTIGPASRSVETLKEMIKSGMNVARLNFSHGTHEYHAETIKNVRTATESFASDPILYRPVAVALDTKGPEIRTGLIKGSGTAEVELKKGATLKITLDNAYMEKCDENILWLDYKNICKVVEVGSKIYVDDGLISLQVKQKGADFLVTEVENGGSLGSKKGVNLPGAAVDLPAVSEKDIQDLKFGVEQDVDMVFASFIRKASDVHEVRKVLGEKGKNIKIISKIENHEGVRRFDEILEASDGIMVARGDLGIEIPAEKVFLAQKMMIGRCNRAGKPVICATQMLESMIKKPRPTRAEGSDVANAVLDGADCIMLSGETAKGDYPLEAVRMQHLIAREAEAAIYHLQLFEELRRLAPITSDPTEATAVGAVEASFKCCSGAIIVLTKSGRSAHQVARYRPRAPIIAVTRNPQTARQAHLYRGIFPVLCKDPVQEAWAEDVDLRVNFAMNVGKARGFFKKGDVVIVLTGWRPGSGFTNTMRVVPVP

AC50 [nM] | SMILES
< 100 | Cc1cc(NS(=O)(=O)c2ccc3c(c2)N(C)C(=O)OC3)ccc1F
< 100 | CN1C(=O)OCc2ccc(S(=O)(=O)Nc3ccc(F)c(Cl)c3)cc21
100 to 500 | CN1C(=O)OCc2cc(S(=O)(=O)Nc3ccc(F)c(Cl)c3)ccc21
100 to 500 | Cc1cc(NS(=O)(=O)c2ccc3c(c2)COC(=O)N3C)ccc1F
100 to 500 | CN1Cc2cc(S(=O)(=O)Nc3ccc(F)c(Cl)c3)ccc2OC1=O
100 to 500 | Cc1cc(NS(=O)(=O)c2ccc3c(c2)CN(C)C(=O)O3)ccc1F
< 100 | Cc1cc(NS(=O)(=O)c2ccc3c(c2)N(C)C(=O)CO3)ccc1F
< 100 | CN1C(=O)COc2ccc(S(=O)(=O)Nc3ccc(F)c(Cl)c3)cc21
< 100 | Cc1cc(NS(=O)(=O)c2ccc3c(c2)N(C)CC(=O)O3)ccc1F
< 100 | CN1CC(=O)Oc2ccc(S(=O)(=O)Nc3ccc(F)c(Cl)c3)cc21

Continued, compound first:

SMILES | AC50 [nM]
O=C1Oc2ccc(S(=O)(=O)Nc3ccc(F)c(Cl)c3)cc2CN1Cc1ccccc1 | > 500
Cc1cc(C)cc(NS(=O)(=O)c2ccc3c(c2)NC(=O)CO3)c1 | > 500
O=C1COc2ccc(S(=O)(=O)Nc3ccc(F)cc3)cc2N1 | > 500
O=C1COc2ccc(S(=O)(=O)Nc3ccc4c(c3)OCCO4)cc2N1 | > 500
COc1ccc(NS(=O)(=O)c2ccc3c(c2)NC(=O)CO3)cc1 | > 500
CN1C(=O)COc2ccc(S(=O)(=O)Nc3ccc4c(c3)OCCO4)cc21 | > 500
Cc1cc(C)cc(NS(=O)(=O)c2ccc3c(c2)N(C)C(=O)CO3)c1 | < 100
CN1C(=O)COc2ccc(S(=O)(=O)Nc3ccc(F)cc3)cc21 | > 500
COc1ccc(NS(=O)(=O)c2ccc3c(c2)N(C)C(=O)CO3)cc1 | > 500
CN1C(=O)COc2ccc(S(=O)(=O)Nc3cccc(Cl)c3)cc21 | < 100
CN1C(=O)COc2ccc(S(=O)(=O)Nc3ccc4c(c3)OCO4)cc21 | < 100
CN1CC(=O)Oc2ccc(S(=O)(=O)Nc3cccc(Cl)c3)cc21 | < 100
